Assay results published in patent US11000033B2, “Ketone or oxime compound, and herbicide” (NISSAN CHEMICAL CORPORATION, priority 2014, dated 2021).

Tests used:
Type in all cases: in vivo
Monochoria vaginalis = assay: Test Example 2: herbicidal activity, application during weed generation in submerged conditions (symbol C); settings: Table 23; application herbicide amount 320 g/ha; grade 0-5 by criteria of Test Example 1
Outline: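 Flooded-soil post-emergence test: emulsion of compound, water-diluted to target rate, applied to paddy water surface at 1–2 leaf stage of mixed-sown weeds (alluvial soil, 4 cm water, 25–30° C. greenhouse); visual rating 3 weeks after application.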

Digitaria ciliaris = assay: Test Example 5: herbicidal effect by foliage application, plastic box (symbol F); settings: 320 g/ha, 3 weeks after application
Outline: (§1)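 After sowing into sterilized diluvial soil and growing two weeks under glass at 25° C. to 30° C., seedlings receive a uniform foliar spray of diluted emulsion. Damage is judged visually three weeks on.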

Stellaria media [1] = assay: Test Example 4: herbicidal effect by soil treatment (symbol P); settings: 320 g/ha
Outline: (§2)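 Seeds were sown in sterilized diluvial soil, covered with about 1.5 cm of soil, and the soil surface was sprayed with a water-diluted emulsion of the compound at a predetermined rate. Plants grew in a greenhouse at 25° C. to 30° C.; effects were scored visually 3 weeks after application.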

Galium spurium = assay: Test Example 4: herbicidal effect by soil treatment (symbol Q); settings: 320 g/ha
Outline: as §2

beet = assay: Test Example 4: effect on crop by soil treatment (symbol f); settings: 320 g/ha
Outline: (§3)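 Crop seeds, among them rice, wheat, beet and rapeseed, were sown in sterilized diluvial soil and covered with about 1.5 cm of soil. Boxes were kept in a greenhouse at 25° C. to 30° C. for plant growth.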

[2] = test system: Echinochloa crus-galli var. crus-galli; assay: Test Example 4: herbicidal effect by soil treatment (symbol H); settings: 320 g/ha
Outline: as §2

rice plant = assay: Test Example 5: effect on crop by foliage application, plastic box (symbol b); settings: 320 g/ha, 3 weeks after application
Outline: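 Diluvial soil, sterilized and boxed (21 × 13 × 7 cm), received spot-sown seed covered by about 1.5 cm soil; plants were then greenhouse-grown at 25–30° C.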

Stellaria media [3] = assay: Test Example 5: herbicidal effect by foliage application, plastic box (symbol P); settings: 320 g/ha, 3 weeks after application
Outline: as §1

rice = assay: Test Example 4: effect on crop by soil treatment (symbol b); settings: 320 g/ha
Outline: as §3

transplanted rice plant = assay: Test Example 1: effect on crop, application before weed generation in submerged conditions (symbol a); settings: application herbicide amount 320 g/ha
Outline: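 Alluvial soil pots flooded to 4 cm water, sown with Echinochloa oryzacola, Scirpus juncoides and Monochoria vaginalis, then transplanted with 2.5 leaf stage rice seedlings; pre-emergence application. Greenhouse 25° C. to 30° C.; scored 0–5 by herbicidal ratio 3 weeks after application.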

Amaranthus retroflexus = assay: Test Example 4: herbicidal effect by soil treatment (symbol N); settings: 320 g/ha
Outline: as §2

Abutilon theophrasti = assay: Test Example 5: herbicidal effect by foliage application, plastic box (symbol M); settings: 320 g/ha, 3 weeks after application
Outline: as §1

Setaria viridis = assay: Test Example 5: herbicidal effect by foliage application, plastic box (symbol G); settings: 320 g/ha, 3 weeks after application
Outline: as §1

Avena fatua = assay: Test Example 5: herbicidal effect by foliage application, plastic box (symbol I); settings: 320 g/ha, 3 weeks after application
Outline: as §1

Structure (SMILES): CON=C(C)CC1CC(OC(=O)C(CSC)=NOC)=C(c2c(C)cc(C)cc2C)C1=O (centres unmarked) [1-098]
- Herbicidal effect grade, C: Monochoria vaginalis (Monochoria vaginalis): 3 (Herbicidal ratio of 40% or higher and lower than 70%)
- F: Digitaria ciliaris, herbicidal effect (criteria 0-5) (Digitaria ciliaris): 5 (Herbicidal ratio of 90% or more (almost completely withered))
- P: Stellaria media, herbicidal effect grade (Stellaria media [1]): 0 (Herbicidal ratio of 5% or lower (almost no effect))
- Q: Galium spurium, herbicidal effect grade (Galium spurium): 0 (Herbicidal ratio of 5% or lower (almost no effect))
- f: beet, effect grade on crop (beet): 0 (Herbicidal ratio of 5% or lower (almost no effect))
- H: Echinochloa crus-galli var. crus-galli, herbicidal effect grade [2]: 5 (Herbicidal ratio of 90% or more (almost completely withered))
- b: directly sowed rice plant, effect on crop (criteria 0-5) (rice plant): 5 (Herbicidal ratio of 90% or more (almost completely withered))
- P: Stellaria media, herbicidal effect (criteria 0-5) (Stellaria media [3]): 3 (Herbicidal ratio of 40% or higher and lower than 70%)
- b: directly sowed rice plant, effect grade on crop (rice): 5 (Herbicidal ratio of 90% or more (almost completely withered))
- Effect grade on crop, a: transplanted rice plant (transplanted rice plant): 5 (Herbicidal ratio of 90% or more (almost completely withered))
- N: Amaranthus retroflexus, herbicidal effect grade (Amaranthus retroflexus): 4 (Herbicidal ratio of 70% or higher and lower than 90%)
- M: Abutilon theophrasti, herbicidal effect (criteria 0-5) (Abutilon theophrasti): 4 (Herbicidal ratio of 70% or higher and lower than 90%)
- G: Setaria viridis, herbicidal effect (criteria 0-5) (Setaria viridis): 5 (Herbicidal ratio of 90% or more (almost completely withered))
- I: Avena fatua, herbicidal effect (criteria 0-5) (Avena fatua): 5 (Herbicidal ratio of 90% or more (almost completely withered))
